From patent US20140303164A1, “THERAPEUTIC COMPOUNDS” (Gilead Sciences, Inc., priority 2013, published 2014) come the findings set out here.

Some results are limits rather than exact numbers.

The nature of series [1]: Test B: Cytotoxicity Assay. The series is classed as cell-based. The following applies: human, uninfected MT-4 cells, same protocol as Test A. As to the method: (§1) MT-4 cells were next mixed with HIV-IIIb at an m.o.i of 0.003 for 1 hour, after which time 35 μL of virus/cell mixture (2000 cells) was immediately added to each well containing 40 μL of diluted compound. The plates were then incubated at 37° C. for 5 days. […] Cell lysis was carried out by incubating at room temperature for 10 min and then chemiluminescence was read.
Test B: Cytotoxicity Assay
Compound cytotoxicity and the corresponding CC50 values was determined using the same protocol as described in the antiviral assay (Test A) except that uninfected cells were used.

Series [2] has as its system HIV-IIIb. Kind of series: Test A: Antiviral Assay in MT4 Cells. The format is cell-based, HIV-1. The following applies: for inhibition at 0.2 µM / inhibition at 2 µM: Human immunodeficiency virus 1, IIIB, MT4, 120 h; for inhibition at 0.2 µM: read-out: % inhibition at 0.2 μM; for inhibition at 2 µM: read-out: % inhibition at 2 μM. Here is the method:
Test A: Antiviral Assay in MT4 Cells
as §1

In turn, `CC(C)(O)C#Cc1ccc(-c2ccc3n[nH]c(=O)n3c2)c([C@H](Cc2cc(F)cc(F)c2)NC(=O)Cn2nc(C(F)(F)F)c3c2C(F)(F)[C@@H]2C[C@H]32)n1` [Compound 26, 2-((3bS,4aR)-5,5-difluoro-3-(trifluoromethyl)-3b,4,4a,5-tetrahydro-1H-cyclopropa[3,4]cyclopenta[1,2-c]pyrazol-1-yl)-N—((S)-2-(3,5-difluorophenyl)-1-(6-(3-hydroxy-3-methylbut-1-yn-1-yl)-3-(3-oxo-2,3-dihydro-[1,2,4]triazolo[4,3-a]pyridin-6-yl)pyridin-2-yl)ethyl)acetamide] had a half-maximal cytotoxic concentration (CC50) at 5 days in series [1] of 10 µM. In series [2], the inhibition at 0.2 µM is 84% and the inhibition at 2 µM came out at 100%.

`Cn1nc(NS(C)(=O)=O)c2c(Cl)ccc(-c3ccc(C#CC(C)(O)CO)nc3[C@H](Cc3cc(F)cc(F)c3)NC(=O)Cn3nc(C(F)(F)F)c4c3C(F)(F)[C@@H]3C[C@H]43)c21` (stereo partly drawn) [Compound 151, N-((1S)-1-(3-(4-chloro-1-methyl-3-(methylsulfonamido)-1H-indazol-7-yl)-6-(3,4-dihydroxy-3-methylbut-1-yn-1-yl)pyridin-2-yl)-2-(3,5-difluorophenyl)ethyl)-2-((3bS,4aR)-5,5-difluoro-3-(trifluoromethyl)-3b,4,4a,5-tetrahydro-1H-cyclopropa[3,4]cyclopenta[1,2-c]pyrazol-1-yl)acetamide] gave a CC50 at 5 days in series [1] of 25.3 µM. In series [2], the inhibition at 0.2 µM was determined as 92% and the inhibition at 2 µM is 92%.

`Cn1nc(NS(C)(=O)=O)c2c(Cl)ccc(-c3ccc(C#CC(C)(C)O)nc3[C@H](Cc3cc(F)cc(F)c3)NC(=O)Cn3nc4c(c3Cl)[C@H]3C[C@H]3C4(F)F)c21` [Compound 140M, N—((S)-1-(3-(4-chloro-1-methyl-3-(methylsulfonamido)-1H-indazol-7-yl)-6-(3-hydroxy-3-methylbut-1-yn-1-yl)pyridin-2-yl)-2-(3,5-difluorophenyl)ethyl)-2-((3b-S,4aR)-3-chloro-5,5-difluoro-3b,4,4a,5-tetrahydro-2H-cyclopropa[3,4]cyclopenta[1,2-c]pyrazol-2-yl)acetamide] displayed a half-maximal cytotoxic concentration (CC50) at 5 days in series [1] of 20.4 µM. Also, in series [2], the inhibition at 0.2 µM worked out at 98% and the inhibition at 2 µM came to 98%.

On to `Cc1cc2ncn(CC(=O)N[C@@H](Cc3cc(F)cc(F)c3)c3nc(C#CC(C)(C)O)ccc3-c3ccc(Cl)c4c(NS(C)(=O)=O)nn(C)c34)c2cc1C` [Compound 199, (S)—N-(1-(3-(4 chloro-1-methyl-3-(methylsulfonamido)-1H-indazol-7-yl)-6-(3-hydroxy-3-methylbut-1-yn-1-yl)pyridin-2-yl)-2-(3,5-difluorophenyl)ethyl)-2-(5,6-dimethyl-1H-benzo[d]imidazol-1-yl)acetamide], for which the half-maximal cytotoxic concentration (CC50) at 5 days in series [1] was 22.5 µM. Besides, in series [2], the inhibition at 0.2 µM was determined as 95% and the inhibition at 2 µM was 95%.

Regarding `Cn1nc(NS(C)(=O)=O)c2c(Cl)ccc(-c3ccc(C#CC(C)(C)O)nc3[C@H](Cc3cc(F)cc(F)c3)NC(=O)Cc3c[nH]c4ccc(F)cc34)c21` [Compound 193, (S)—N-(1-(3-(4 chloro-1-methyl-3-(methylsulfonamido)-1H-indazol-7-yl)-6-(3-hydroxy-3-methylbut-1-yn-1-yl)pyridin-2-yl)-2-(3,5-difluorophenyl)ethyl)-2-(5-fluoro-1H-indol-3-yl)acetamide], it took 23.1 µM to reach half-maximal cytotoxicity in series [1] (CC50 at 5 days). Moreover, in series [2], the inhibition at 0.2 µM came to 92% and the inhibition at 2 µM was determined as 92%.

For `Cn1nc(NS(C)(=O)=O)c2c(Cl)ccc(-c3ccc(C#CC(C)(C)O)nc3[C@H](Cc3cc(F)cc(F)c3)NC(=O)Cn3nc(C#N)c4c3C(F)(F)[C@@H]3C[C@H]43)c21` [Compound 159, N—((S)-1-(3-(4-chloro-1-methyl-3-(methylsulfonamido)-1H-indazol-7-yl)-6-(3-hydroxy-3-methylbut-1-yn-1-yl)pyridin-2-yl)-2-(3,5-difluorophenyl)ethyl)-2-((3bS,4aR)-3-cyano-5,5-difluoro-3b,4,4a,5-tetrahydro-1H-cyclopropa[3,4]cyclopenta[1,2-c]pyrazol-1-yl)acetamide], the CC50 at 5 days in series [1] came to 27.4 µM. In series [2], the inhibition at 0.2 µM came out at 95% and the inhibition at 2 µM worked out at 95%.

In series [1], `CC(C(=O)N[C@@H](Cc1cc(F)cc(F)c1)c1nc(C#CC(C)(C)O)ccc1-c1ccc(Cl)c2c(NS(C)(=O)=O)nn(C)c12)c1ccccc1` (stereo partly drawn) [Compound 195, N—((S)-1-(3-(4-chloro-1-methyl-3-(methylsulfonamido)-1H-indazol-7-yl)-6-(3-hydroxy-3-methylbut-1-yn-1-yl)pyridin-2-yl)-2-(3,5-difluorophenyl)ethyl)-2-phenylpropanamide] registered a 50% cytotoxic concentration (CC50) at 5 days of 11.2 µM. Further, in series [2], the inhibition at 0.2 µM amounted to 88% and the inhibition at 2 µM is 90%.

Regarding `Cn1nc(NS(C)(=O)=O)c2c(F)ccc(-c3ccc(C#CC(C)(C)O)nc3[C@H](Cc3cc(F)cc(F)c3)NC(=O)Cn3nc(C(F)(F)F)c4c3C(F)(F)[C@@H]3C[C@H]43)c21` [Compound 132C, 2-((3bS,4aR)-5,5-difluoro-3-(trifluoromethyl)-3b,4,4a,5-tetrahydro-1H-cyclopropa[3,4]cyclopenta[1,2-c]pyrazol-1-yl)-N—((S)-2-(3,5-difluorophenyl)-1-(3-(4-fluoro-1-methyl-3-(methylsulfonamido)-1H-indazol-7-yl)-6-(3-hydroxy-3-methylbut-1-yn-1-yl)pyridin-2-yl)ethyl)acetamide], the 50% cytotoxic concentration (CC50) at 5 days in series [1] stood at 24.2 µM. Further, in series [2], the inhibition at 0.2 µM amounted to 92% and the inhibition at 2 µM came to 92%.

In series [1], `CC(C)(O)C#Cc1ccc(-c2ccc(F)c(C(N)=O)c2)c([C@H](Cc2cc(F)cc(F)c2)NC(=O)Cn2nc(C(F)F)c3c2C(F)(F)CCC3(F)F)n1` [Compound 28, (S)-5-(2-(1-(2-(3 (difluoromethyl)-4,4,7,7-tetrafluoro-4,5,6,7-tetrahydro-1H-indazol-1-yl)acetamido)-2-(3,5-difluorophenyl)ethyl)-6-(3-hydroxy-3-methylbut-1-yn-1-yl)pyridin-3-yl)-2-fluorobenzamide] returned a CC50 at 5 days of 12.2 µM. For the same compound, in series [2] (percent inhibition of virus-induced cell killing at 0.2 μM, comparison with previously published compounds (WO 2013/006738)), the “Response at 0.2 μM” value is 71%. Further, the “Response at 2 μM” value in series [2] (percent inhibition of virus-induced cell killing at 2 μM, comparison with previously published compounds (WO 2013/006738)) is listed as 84%.

In series [1], `Cn1nc(NS(=O)(=O)C(F)(F)F)c2c(Cl)ccc(-c3ccc(C#CC(C)(C)O)nc3[C@H](Cc3cc(F)cc(F)c3)NC(=O)Cn3nc(C(F)F)c4c3C(F)(F)[C@@H]3C[C@H]43)c21` [Compound 171D, N—((S)-1-(3-(4-chloro-1-methyl-3-(trifluoromethylsulfonamido)-1H-indazol-7-yl)-6-(3-hydroxy-3-methylbut-1-yn-1-yl)pyridin-2-yl)-2-(3,5-difluorophenyl)ethyl)-2-((3b-S,4aR)-3-(difluoromethyl)-5,5-difluoro-3b,4,4a,5-tetrahydro-1H-cyclopropa[3,4]cyclopenta[1,2-c]pyrazol-1-yl)acetamide] returned a cytotoxic concentration (CC50) at 5 days above 42.5 µM.

A word on the CC50: it is the concentration that lowers cell viability or growth by half. A higher CC50 goes with lower toxicity to the cells. As a reminder, the inhibition is the share of the control response that was lost under treatment.
